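Results reflect a 48-hour exposure of cells in 96-well plates to compound at five concentrations. TGI: total growth inhibition.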
Key:
Assay in all cases: growth of human tumour cells (NCI), 48 h
SF-268 CNS = tested on: SF-268 CNS
OVCAR-8 ovarian = tested on: OVCAR-8 ovarian
UACC-257 melanoma = tested on: UACC-257 melanoma
CAKI-1 renal = tested on: CAKI-1 renal
OVCAR-4 ovarian = tested on: OVCAR-4 ovarian
NCI-H23 lung = tested on: NCI-H23 lung
OVCAR-3 ovarian = tested on: OVCAR-3 ovarian
KM12 colon = tested on: KM12 colon
HT29 colon = tested on: HT29 colon
SK-MEL-5 melanoma = tested on: SK-MEL-5 melanoma

## c1ccc2c(-c3csc(-c4c[nH]c5ccccc45)n3)c[nH]c2c1
SF-268 CNS
  TGI: > 100 µM
OVCAR-8 ovarian
  TGI: > 100 µM
UACC-257 melanoma
  TGI: > 100 µM
CAKI-1 renal
  TGI: > 100 µM
OVCAR-4 ovarian
  TGI: > 100 µM
NCI-H23 lung
  TGI: > 100 µM
OVCAR-3 ovarian
  TGI: > 100 µM
KM12 colon
  TGI: > 100 µM
HT29 colon
  TGI: > 83.6 µM

## BrCc1ccc(CBr)c2c1-c1c(CBr)ccc3ccc(CBr)c-2c13
SF-268 CNS
  TGI: > 100 µM
OVCAR-8 ovarian
  TGI: > 100 µM
UACC-257 melanoma
  TGI: > 100 µM
OVCAR-4 ovarian
  TGI: > 100 µM
OVCAR-3 ovarian
  TGI: > 100 µM
KM12 colon
  TGI: > 100 µM
HT29 colon
  TGI: > 100 µM

## CCCC(=O)OCOC(=O)N(C)N=Nc1ccc(C(=O)OCC)cc1
SF-268 CNS
  TGI: > 100 µM
OVCAR-8 ovarian
  TGI: 84.7 µM
UACC-257 melanoma
  TGI: > 100 µM
CAKI-1 renal
  TGI: > 100 µM
SK-MEL-5 melanoma
  TGI: > 100 µM
OVCAR-4 ovarian
  TGI: > 100 µM
NCI-H23 lung
  TGI: 66.4 µM
OVCAR-3 ovarian
  TGI: > 100 µM
KM12 colon
  TGI: > 100 µM
HT29 colon
  TGI: 41.6 µM

## CN(C)CC(/C(Cc1ccccc1)=N\NC(=S)NN)c1ccccc1 (configuration not stated)
SF-268 CNS
  TGI: > 100 µM
OVCAR-8 ovarian
  TGI: > 100 µM
UACC-257 melanoma
  TGI: > 100 µM
CAKI-1 renal
  TGI: > 100 µM
OVCAR-4 ovarian
  TGI: > 100 µM
NCI-H23 lung
  TGI: > 100 µM
OVCAR-3 ovarian
  TGI: > 100 µM
KM12 colon
  TGI: > 100 µM
HT29 colon
  TGI: > 100 µM

## O=C(Nc1nc2ncn(CCO)c2c(=O)[nH]1)c1ccccc1
SF-268 CNS
  TGI: > 100 µM
OVCAR-8 ovarian
  TGI: > 100 µM
UACC-257 melanoma
  TGI: > 100 µM
CAKI-1 renal
  TGI: > 100 µM
SK-MEL-5 melanoma
  TGI: > 100 µM
OVCAR-4 ovarian
  TGI: > 100 µM
OVCAR-3 ovarian
  TGI: > 100 µM
KM12 colon
  TGI: > 100 µM
HT29 colon
  TGI: > 100 µM

## Nc1c(Cl)cc(-c2nc3ccccc3s2)cc1Cl
SF-268 CNS
  TGI: > 100 µM
OVCAR-8 ovarian
  TGI: > 100 µM
UACC-257 melanoma
  TGI: > 100 µM
SK-MEL-5 melanoma
  TGI: > 100 µM
OVCAR-3 ovarian
  TGI: > 100 µM
KM12 colon
  TGI: > 100 µM
HT29 colon
  TGI: > 100 µM

## CCC(=O)C(CCN1CCC(N2C(=O)C(CCC#N)c3ccccc32)CC1)(c1ccccc1)c1ccccc1 (configuration not stated)
SF-268 CNS
  TGI: 34.5 µM
OVCAR-8 ovarian
  TGI: 23.6 µM
UACC-257 melanoma
  TGI: 26.7 µM
CAKI-1 renal
  TGI: 96.4 µM
SK-MEL-5 melanoma
  TGI: 22.1 µM
NCI-H23 lung
  TGI: 48.8 µM
OVCAR-3 ovarian
  TGI: 22.9 µM
KM12 colon
  TGI: 28 µM
HT29 colon
  TGI: 12.9 µM

## Nc1ccc(-c2nc3ccc(F)cc3s2)cc1I
SF-268 CNS
  TGI: > 100 µM
OVCAR-8 ovarian
  TGI: > 100 µM
UACC-257 melanoma
  TGI: > 100 µM
CAKI-1 renal
  TGI: > 100 µM
SK-MEL-5 melanoma
  TGI: > 100 µM
NCI-H23 lung
  TGI: > 100 µM
KM12 colon
  TGI: > 100 µM
HT29 colon
  TGI: > 100 µM

## C[C@H]1C[C@H]2[C@@H]3CCC4=CC(=O)C=C[C@]4(C)C3=CC[C@]2(C)[C@@]1(O)C(=O)CO
SF-268 CNS
  TGI: > 100 µM
OVCAR-8 ovarian
  TGI: > 100 µM
UACC-257 melanoma
  TGI: > 100 µM
CAKI-1 renal
  TGI: > 100 µM
SK-MEL-5 melanoma
  TGI: > 100 µM
OVCAR-4 ovarian
  TGI: > 100 µM
NCI-H23 lung
  TGI: > 100 µM
KM12 colon
  TGI: > 100 µM
HT29 colon
  TGI: > 100 µM

## O=c1n(-c2ccccc2)c(=O)n2c(-c3ccccc3)c(-c3ccccc3)n12
OVCAR-8 ovarian
  TGI: > 100 µM
UACC-257 melanoma
  TGI: > 100 µM
CAKI-1 renal
  TGI: > 100 µM
SK-MEL-5 melanoma
  TGI: > 100 µM
OVCAR-4 ovarian
  TGI: > 100 µM
NCI-H23 lung
  TGI: > 100 µM
OVCAR-3 ovarian
  TGI: > 100 µM
KM12 colon
  TGI: > 100 µM
HT29 colon
  TGI: > 100 µM

## COc1cc(-c2cc(=O)c3ccccc3[nH]2)cc(OC)c1OC
SF-268 CNS
  TGI: > 75 µM
OVCAR-8 ovarian
  TGI: > 75 µM
UACC-257 melanoma
  TGI: > 75 µM
NCI-H23 lung
  TGI: > 75 µM
OVCAR-3 ovarian
  TGI: > 75 µM
KM12 colon
  TGI: > 75 µM
HT29 colon
  TGI: > 75 µM

## C=C(C)CCC1CC=[N+]([O-])OC1C(C)(C)C (configuration not stated)
SF-268 CNS
  TGI: > 100 µM
OVCAR-8 ovarian
  TGI: > 100 µM
UACC-257 melanoma
  TGI: > 100 µM
CAKI-1 renal
  TGI: 75.3 µM
SK-MEL-5 melanoma
  TGI: > 100 µM
OVCAR-3 ovarian
  TGI: > 100 µM
KM12 colon
  TGI: 64.8 µM
HT29 colon
  TGI: > 100 µM

## S=C(N/N=C/c1ccccn1)N1CCCCCC1
OVCAR-8 ovarian
  TGI: 12.7 µM
UACC-257 melanoma
  TGI: 0.169 µM
SK-MEL-5 melanoma
  TGI: 1.18 µM
OVCAR-4 ovarian
  TGI: 37 µM
NCI-H23 lung
  TGI: > 58.6 µM
OVCAR-3 ovarian
  TGI: 9.3 µM
KM12 colon
  TGI: 63.3 µM
HT29 colon
  TGI: > 44.2 µM

## CC(=O)O[C@@H]1[C@H]2[C@@H](OC(=O)c3ccccc3)[C@@H](C)C[C@]2(O)[C@H](OC(C)=O)[C@@]2(C)[C@@H]3C[C@@](C)(OC(C)=O)C[C@@H](OC(C)=O)[C@@]3(OC(C)=O)C[C@@]12C
SF-268 CNS
  TGI: > 10 µM
OVCAR-8 ovarian
  TGI: > 10 µM
UACC-257 melanoma
  TGI: > 10 µM
CAKI-1 renal
  TGI: > 10 µM
SK-MEL-5 melanoma
  TGI: > 10 µM
OVCAR-4 ovarian
  TGI: > 10 µM
NCI-H23 lung
  TGI: > 10 µM
OVCAR-3 ovarian
  TGI: > 10 µM
KM12 colon
  TGI: > 10 µM

## COCCOCOC(C)(C)[C@H](CCO)O[Si](c1ccccc1)(c1ccccc1)C(C)(C)C
SF-268 CNS
  TGI: 22.5 µM
OVCAR-8 ovarian
  TGI: 23.5 µM
UACC-257 melanoma
  TGI: 23.5 µM
SK-MEL-5 melanoma
  TGI: 26.7 µM
NCI-H23 lung
  TGI: 35.9 µM
OVCAR-3 ovarian
  TGI: 22.2 µM
KM12 colon
  TGI: 31.9 µM
HT29 colon
  TGI: 21.4 µM

## Oc1cccnc1/C=N/OCc1ccccc1
SF-268 CNS
  TGI: > 100 µM
OVCAR-8 ovarian
  TGI: > 100 µM
UACC-257 melanoma
  TGI: > 100 µM
CAKI-1 renal
  TGI: > 100 µM
SK-MEL-5 melanoma
  TGI: > 100 µM
OVCAR-3 ovarian
  TGI: > 100 µM
KM12 colon
  TGI: > 100 µM
HT29 colon
  TGI: > 100 µM

## CNC(=O)CCCNC(=O)CCCC(=O)OC
SF-268 CNS
  TGI: > 100 µM
OVCAR-8 ovarian
  TGI: > 100 µM
UACC-257 melanoma
  TGI: > 100 µM
CAKI-1 renal
  TGI: > 100 µM
SK-MEL-5 melanoma
  TGI: > 100 µM
NCI-H23 lung
  TGI: > 100 µM
OVCAR-3 ovarian
  TGI: > 100 µM
KM12 colon
  TGI: > 100 µM
HT29 colon
  TGI: > 100 µM

## CNC(=O)N1N[C@H](c2ccccc2)[C@@H]1c1ccccc1
OVCAR-8 ovarian
  TGI: 29.9 µM
UACC-257 melanoma
  TGI: > 100 µM
CAKI-1 renal
  TGI: > 100 µM
SK-MEL-5 melanoma
  TGI: 32.8 µM
OVCAR-4 ovarian
  TGI: > 100 µM
NCI-H23 lung
  TGI: 47.9 µM
OVCAR-3 ovarian
  TGI: 36.7 µM
KM12 colon
  TGI: 45.2 µM
HT29 colon
  TGI: 32.3 µM

— PubChem BioAssay (NCI)
